For one series, the target named is Cytochrome P450 2C19 (Homo sapiens, UniProt P33261). As to the kind of experiment: Inhibition of CYP2C19 (unknown origin). Type of series: ADME.
The target in the next series is Cytochrome P450 2C9 (Homo sapiens, UniProt P11712). The series can be described thus: Inhibition of CYP2C9 (unknown origin). It counts as ADME.
The next series concerns the target Cytochrome P450 3A4 (Homo sapiens, UniProt P08684). As to the kind of experiment: Inhibition of CYP3A4 (unknown origin). It counts as ADME.
A further series deals with Cytochrome P450 2D6 (Homo sapiens, UniProt P10635). The series can be described thus: (§1) Inhibition of CYP2D6 (unknown origin). It counts as ADME.
Chain of Cytochrome P450 2D6 (P10635 whole entry): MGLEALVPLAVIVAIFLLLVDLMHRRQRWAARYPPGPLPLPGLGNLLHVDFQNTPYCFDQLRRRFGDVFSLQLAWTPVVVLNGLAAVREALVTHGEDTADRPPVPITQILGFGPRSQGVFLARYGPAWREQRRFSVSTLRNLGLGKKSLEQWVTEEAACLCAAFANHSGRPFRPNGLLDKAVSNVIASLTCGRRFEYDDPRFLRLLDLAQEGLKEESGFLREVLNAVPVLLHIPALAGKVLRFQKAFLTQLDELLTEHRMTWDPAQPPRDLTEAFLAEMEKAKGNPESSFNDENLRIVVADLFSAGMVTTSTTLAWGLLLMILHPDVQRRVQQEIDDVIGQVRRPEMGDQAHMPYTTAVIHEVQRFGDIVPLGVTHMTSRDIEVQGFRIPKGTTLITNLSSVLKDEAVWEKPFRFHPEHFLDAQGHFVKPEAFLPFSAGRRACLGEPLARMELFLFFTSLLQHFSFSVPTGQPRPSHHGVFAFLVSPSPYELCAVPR
For another series, the target named is T1, Cytochrome P450 1A2 (Homo sapiens, UniProt P05177).
T1 sequence (P05177 whole entry): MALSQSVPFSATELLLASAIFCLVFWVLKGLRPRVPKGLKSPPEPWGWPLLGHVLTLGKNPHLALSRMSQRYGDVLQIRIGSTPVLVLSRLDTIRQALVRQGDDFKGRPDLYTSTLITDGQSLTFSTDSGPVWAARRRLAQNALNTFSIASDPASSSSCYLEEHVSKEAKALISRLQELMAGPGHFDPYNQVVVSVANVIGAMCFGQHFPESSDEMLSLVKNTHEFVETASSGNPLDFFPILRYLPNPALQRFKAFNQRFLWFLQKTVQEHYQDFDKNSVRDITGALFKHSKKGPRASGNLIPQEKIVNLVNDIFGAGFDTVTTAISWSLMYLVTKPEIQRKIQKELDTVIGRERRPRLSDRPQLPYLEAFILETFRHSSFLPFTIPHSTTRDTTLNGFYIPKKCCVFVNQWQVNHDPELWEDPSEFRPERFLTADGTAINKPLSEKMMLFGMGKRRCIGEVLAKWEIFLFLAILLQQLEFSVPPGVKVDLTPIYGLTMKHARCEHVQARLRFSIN
As to the kind of experiment: Inhibition of CYP1A2 (unknown origin). Type of series: ADME.

Series [1] is described as follows: Cytotoxicity against human HCT116 cells assessed as cell growth inhibition. It counts as functional. Particulars: HCT-116.
Another series has as its target T2, Aurora kinase A (Homo sapiens, UniProt O14965).
T2 sequence (O14965 whole entry): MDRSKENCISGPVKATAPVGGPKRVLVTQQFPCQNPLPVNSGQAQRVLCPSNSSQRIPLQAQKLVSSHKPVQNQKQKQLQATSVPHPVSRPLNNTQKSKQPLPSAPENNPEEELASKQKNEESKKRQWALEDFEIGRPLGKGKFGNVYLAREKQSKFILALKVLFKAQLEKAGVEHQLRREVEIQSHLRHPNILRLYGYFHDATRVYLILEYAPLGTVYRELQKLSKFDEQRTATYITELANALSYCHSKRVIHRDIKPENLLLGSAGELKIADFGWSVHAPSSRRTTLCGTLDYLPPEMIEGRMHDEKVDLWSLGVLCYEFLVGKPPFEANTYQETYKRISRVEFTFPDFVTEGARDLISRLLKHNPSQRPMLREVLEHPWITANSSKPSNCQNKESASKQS
The series can be described thus: Inhibition of recombinant Aurora A kinase derived from human Hela cells using kemptide as substrate in presence of [c-32P]ATP.

The target in the next series is CYP2D6 (Homo sapiens, UniProt P10635). The series is described as §1. Type of series: ADME.
Chain of CYP2D6 (P10635 whole entry): as the sequence (P10635 whole entry) above
A further series relates to Mus musculus. As to the kind of experiment: Toxicity in mouse allografted subcutaneously with mouse CT26 cells assessed as mortality at 30 mg/kg, ip qd for 14 days. Type of series: organism-based. The note with it: in vivo, 336 h.
Series [2] in a line: Antitumor activity against mouse CT26 cells allografted subcutaneously in mouse assessed as tumor growth inhibition at 25 mg/kg, ip qd for 14 days. Type of series: functional. The note with it: CT26, 336 h, read-out: TGI.
Another series deals with Aurora kinase B (Homo sapiens, UniProt Q96GD4). The series can be described thus: Inhibition of Aurora 1 kinase (unknown origin).
Series [3] has as its target Proto-oncogene tyrosine-protein kinase Src (Homo sapiens, UniProt P12931). The series can be described thus: Inhibition of cSRC (unknown origin).
Series [4] concerns the target Fibroblast growth factor receptor 1 (Homo sapiens, UniProt P11362). As to the kind of experiment: Inhibition of FGFR1 (unknown origin).
Series [5] deals with Tyrosine-protein kinase Fyn (Homo sapiens, UniProt P06241). The series can be described thus: Inhibition of FYN (unknown origin).
Chain of Tyrosine-protein kinase Fyn (P06241 whole entry): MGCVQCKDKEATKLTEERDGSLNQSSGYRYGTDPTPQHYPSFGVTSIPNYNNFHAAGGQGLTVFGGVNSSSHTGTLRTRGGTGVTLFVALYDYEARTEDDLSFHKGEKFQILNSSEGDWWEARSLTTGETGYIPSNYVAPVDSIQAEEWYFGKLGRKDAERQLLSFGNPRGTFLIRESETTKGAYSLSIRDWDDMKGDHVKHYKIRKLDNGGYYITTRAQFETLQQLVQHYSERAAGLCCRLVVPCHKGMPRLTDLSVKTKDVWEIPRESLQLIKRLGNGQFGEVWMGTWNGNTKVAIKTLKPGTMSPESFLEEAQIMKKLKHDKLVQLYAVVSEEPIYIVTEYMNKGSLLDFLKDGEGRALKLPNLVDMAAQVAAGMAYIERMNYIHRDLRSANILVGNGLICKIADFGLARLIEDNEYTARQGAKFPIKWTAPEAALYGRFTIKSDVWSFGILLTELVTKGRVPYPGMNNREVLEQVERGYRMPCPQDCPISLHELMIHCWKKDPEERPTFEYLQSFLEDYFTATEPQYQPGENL
Series [6] concerns the target Vascular endothelial growth factor receptor 2 (Homo sapiens, UniProt P35968). The series can be described thus: Inhibition of KDR (unknown origin).
For series [7], the target named is Tyrosine-protein kinase Lyn (Homo sapiens, UniProt P07948). As to the kind of experiment: Inhibition of LYN (unknown origin).
Chain of Tyrosine-protein kinase Lyn (P07948 whole entry): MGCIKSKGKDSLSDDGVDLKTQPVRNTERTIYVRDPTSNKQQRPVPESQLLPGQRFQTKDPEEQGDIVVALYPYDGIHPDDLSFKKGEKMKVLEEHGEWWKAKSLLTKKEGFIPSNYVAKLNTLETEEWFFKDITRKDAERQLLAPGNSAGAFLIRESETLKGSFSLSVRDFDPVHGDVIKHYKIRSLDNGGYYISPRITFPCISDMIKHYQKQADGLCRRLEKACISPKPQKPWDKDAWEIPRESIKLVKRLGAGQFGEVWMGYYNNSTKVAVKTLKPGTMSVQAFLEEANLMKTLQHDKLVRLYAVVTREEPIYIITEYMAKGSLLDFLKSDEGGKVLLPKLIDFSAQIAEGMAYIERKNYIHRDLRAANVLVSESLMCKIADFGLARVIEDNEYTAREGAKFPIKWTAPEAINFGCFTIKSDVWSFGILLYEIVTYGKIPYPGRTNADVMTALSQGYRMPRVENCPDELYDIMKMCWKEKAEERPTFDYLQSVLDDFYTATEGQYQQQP
The target in series [8] is Tyrosine-protein kinase Yes (Homo sapiens, UniProt P07947). As to the kind of experiment: Inhibition of YES (unknown origin).
Chain of Tyrosine-protein kinase Yes (P07947 whole entry): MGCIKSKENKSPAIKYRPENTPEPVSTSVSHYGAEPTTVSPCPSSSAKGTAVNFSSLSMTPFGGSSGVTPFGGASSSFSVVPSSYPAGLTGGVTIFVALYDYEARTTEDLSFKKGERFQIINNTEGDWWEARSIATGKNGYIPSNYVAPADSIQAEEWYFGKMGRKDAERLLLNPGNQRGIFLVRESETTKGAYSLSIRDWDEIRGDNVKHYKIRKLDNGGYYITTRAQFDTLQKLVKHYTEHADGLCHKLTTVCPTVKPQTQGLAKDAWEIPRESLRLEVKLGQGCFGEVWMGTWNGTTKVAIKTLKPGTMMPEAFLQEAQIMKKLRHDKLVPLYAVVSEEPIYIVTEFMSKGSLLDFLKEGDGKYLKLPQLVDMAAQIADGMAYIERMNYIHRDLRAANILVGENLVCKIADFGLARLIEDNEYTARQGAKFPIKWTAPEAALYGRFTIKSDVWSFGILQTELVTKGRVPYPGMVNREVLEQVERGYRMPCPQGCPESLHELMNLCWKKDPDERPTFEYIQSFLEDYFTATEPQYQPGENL
The nature of series [9]: Antitumor activity against human HCT116 cells xenografted subcutaneously in mouse assessed as tumor growth inhibition at 30 mg/kg, po qd after 14 days. It counts as functional. Particulars: HCT-116, 336 h, read-out: TGI.
A short description of series [10]: AUC in rat at 30 mg/kg, po. It counts as ADME, organism-based. The note with it: in vivo.
Series [11] is described as follows: Tmax in rat at 30 mg/kg, po. It counts as ADME, organism-based. The note with it: in vivo.
Series [12] can be described thus: Cmax in rat at 30 mg/kg, po. It counts as ADME, organism-based. On the set-up: dose 30 mg/kg, route oral. The note with it: in vivo.
The nature of series [13]: Antitumor activity against human PC3 cells xenografted subcutaneously in mouse assessed as tumor growth inhibition at 30 mg/kg, po qd for 14 days. Type of series: functional. Particulars: PC-3, 336 h, read-out: TGI. Background: A xenograft is tissue or cells of one species grown in another, often human tumour cells in immunodeficient mice.
A short description of series [14]: Antitumor activity against mouse CT26 cells allografted subcutaneously in mouse assessed as tumor growth inhibition at 30 mg/kg, po qd for 14 days. It counts as functional. Particulars: CT26, 336 h, read-out: TGI.
Series [15] is described as follows: Antitumor activity against human HCT116 cells xenografted subcutaneously in mouse assessed as tumor growth inhibition at 40 mg/kg, po qd administered on day 1, 5, 9, 13, 16 relative to control. Particulars: HCT-116, read-out: TGI. Type of series: functional.
The nature of series [16]: Antitumor activity against human HCT116 cells xenografted subcutaneously in mouse assessed as tumor growth inhibition at 20 mg/kg, po qd administered on day 1, 5, 9, 13, 16 relative to control. The note with it: HCT-116, read-out: TGI. It counts as functional.

Each structure is given as a SMILES string. Bounds are passed on as bounds.

Chain of Cytochrome P450 3A4 (P08684 whole entry): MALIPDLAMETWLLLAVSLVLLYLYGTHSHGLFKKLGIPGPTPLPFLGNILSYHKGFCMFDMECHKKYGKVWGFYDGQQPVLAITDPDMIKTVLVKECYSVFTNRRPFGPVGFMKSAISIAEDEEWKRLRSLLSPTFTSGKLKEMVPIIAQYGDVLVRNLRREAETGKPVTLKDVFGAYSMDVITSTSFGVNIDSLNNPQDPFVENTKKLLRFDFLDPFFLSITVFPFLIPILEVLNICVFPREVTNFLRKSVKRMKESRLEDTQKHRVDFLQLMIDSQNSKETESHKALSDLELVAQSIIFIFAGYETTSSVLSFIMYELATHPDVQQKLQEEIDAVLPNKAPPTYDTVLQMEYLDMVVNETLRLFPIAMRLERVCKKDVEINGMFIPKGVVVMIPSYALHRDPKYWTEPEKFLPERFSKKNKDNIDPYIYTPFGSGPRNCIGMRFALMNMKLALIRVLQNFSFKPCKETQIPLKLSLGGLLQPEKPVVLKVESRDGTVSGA
Chain of Cytochrome P450 2C9 (P11712 whole entry): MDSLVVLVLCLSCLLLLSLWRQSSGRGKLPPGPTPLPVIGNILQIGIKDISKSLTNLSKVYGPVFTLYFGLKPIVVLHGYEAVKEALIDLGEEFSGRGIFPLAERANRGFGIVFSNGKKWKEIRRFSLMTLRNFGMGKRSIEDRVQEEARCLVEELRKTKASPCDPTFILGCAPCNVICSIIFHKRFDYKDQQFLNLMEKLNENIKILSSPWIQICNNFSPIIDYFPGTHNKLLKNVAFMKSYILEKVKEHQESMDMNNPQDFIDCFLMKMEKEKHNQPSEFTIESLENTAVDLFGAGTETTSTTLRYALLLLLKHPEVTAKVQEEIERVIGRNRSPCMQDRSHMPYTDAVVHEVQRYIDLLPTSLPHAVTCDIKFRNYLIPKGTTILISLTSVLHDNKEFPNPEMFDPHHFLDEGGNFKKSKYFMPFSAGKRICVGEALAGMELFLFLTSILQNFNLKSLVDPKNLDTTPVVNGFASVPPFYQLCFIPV
Chain of Cytochrome P450 2C19 (P33261 whole entry): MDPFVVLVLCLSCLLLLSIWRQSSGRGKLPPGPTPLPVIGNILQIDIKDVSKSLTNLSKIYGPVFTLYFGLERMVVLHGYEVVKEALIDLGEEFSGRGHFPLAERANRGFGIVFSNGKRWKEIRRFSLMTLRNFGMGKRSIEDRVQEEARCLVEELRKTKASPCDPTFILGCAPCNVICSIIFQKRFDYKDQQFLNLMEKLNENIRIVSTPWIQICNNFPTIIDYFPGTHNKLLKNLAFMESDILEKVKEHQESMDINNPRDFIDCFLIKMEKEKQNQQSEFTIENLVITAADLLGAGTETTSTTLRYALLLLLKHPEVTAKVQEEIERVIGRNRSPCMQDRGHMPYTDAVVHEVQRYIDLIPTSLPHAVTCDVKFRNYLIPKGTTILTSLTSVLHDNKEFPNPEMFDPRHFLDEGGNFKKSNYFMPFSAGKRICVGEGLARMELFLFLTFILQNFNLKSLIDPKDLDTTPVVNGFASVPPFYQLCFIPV
Chain of Vascular endothelial growth factor receptor 2 (P35968 whole entry): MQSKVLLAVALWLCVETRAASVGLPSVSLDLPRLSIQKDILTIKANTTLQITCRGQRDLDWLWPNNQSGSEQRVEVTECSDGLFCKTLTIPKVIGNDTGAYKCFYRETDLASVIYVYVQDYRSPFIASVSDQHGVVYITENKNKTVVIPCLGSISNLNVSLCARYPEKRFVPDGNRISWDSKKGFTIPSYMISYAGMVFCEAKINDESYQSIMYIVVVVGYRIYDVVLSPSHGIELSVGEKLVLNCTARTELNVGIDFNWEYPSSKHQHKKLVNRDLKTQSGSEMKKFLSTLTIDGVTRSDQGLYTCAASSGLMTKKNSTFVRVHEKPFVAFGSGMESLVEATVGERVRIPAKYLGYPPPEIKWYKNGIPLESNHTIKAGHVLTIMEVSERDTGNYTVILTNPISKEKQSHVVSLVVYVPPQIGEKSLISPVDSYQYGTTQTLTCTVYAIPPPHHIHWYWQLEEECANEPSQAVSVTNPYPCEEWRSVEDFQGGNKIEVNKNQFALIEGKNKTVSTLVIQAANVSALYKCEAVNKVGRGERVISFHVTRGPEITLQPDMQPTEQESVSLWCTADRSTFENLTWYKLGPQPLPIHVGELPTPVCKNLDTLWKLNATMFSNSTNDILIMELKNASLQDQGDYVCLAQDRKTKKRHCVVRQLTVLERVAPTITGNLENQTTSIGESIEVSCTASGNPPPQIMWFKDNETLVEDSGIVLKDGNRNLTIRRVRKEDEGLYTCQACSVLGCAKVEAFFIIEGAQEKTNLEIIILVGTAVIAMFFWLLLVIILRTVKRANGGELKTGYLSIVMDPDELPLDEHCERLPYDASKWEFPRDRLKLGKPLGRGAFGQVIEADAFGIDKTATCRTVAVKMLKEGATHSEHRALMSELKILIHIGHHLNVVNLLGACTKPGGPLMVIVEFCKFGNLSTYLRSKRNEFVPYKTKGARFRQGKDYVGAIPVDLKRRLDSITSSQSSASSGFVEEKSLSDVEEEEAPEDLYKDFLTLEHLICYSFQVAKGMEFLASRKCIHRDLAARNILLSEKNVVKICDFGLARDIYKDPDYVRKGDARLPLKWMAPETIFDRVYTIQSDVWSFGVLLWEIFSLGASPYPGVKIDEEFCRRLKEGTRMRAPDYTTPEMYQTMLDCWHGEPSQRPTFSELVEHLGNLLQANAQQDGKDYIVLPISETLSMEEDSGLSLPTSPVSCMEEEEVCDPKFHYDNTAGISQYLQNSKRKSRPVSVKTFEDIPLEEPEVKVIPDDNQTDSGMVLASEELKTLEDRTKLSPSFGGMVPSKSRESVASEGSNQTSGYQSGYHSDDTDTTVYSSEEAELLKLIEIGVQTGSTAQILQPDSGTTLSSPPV

As a reminder, the IC50 is the midpoint of a concentration-inhibition curve. Low readings indicate higher potency, high ones lower potency. As a reminder, the GI50 is the concentration at which growth is held to half of that of the control. As to `Cc1cc(Nc2cc(C)c(C#N)c(NCCOc3ccccc3Cl)n2)n[nH]1`, the IC50 at Cytochrome P450 2C19 was less than 400 nM; on Cytochrome P450 2C9 it was less than 200 nM; at Cytochrome P450 3A4 it was 1200 nM; at Cytochrome P450 2D6 it was 6500 nM; against Cytochrome P450 1A2, 500 nM. In addition, the concentration for 50% growth inhibition (GI50) in series [1] is 9 nM.

In general, Ki refers to the equilibrium dissociation constant of an inhibitor or competing ligand from its target. Turning to `Cc1cc(Nc2cc(C)c(C#N)c(NCCOc3ccncc3)n2)n[nH]1`, the inhibition constant (Ki) at Aurora kinase A is 29 nM. In addition, the 50% inhibitory concentration (IC50) was less than 400 nM against Cytochrome P450 3A4, 2000 nM at Cytochrome P450 2D6 and less than 400 nM against Cytochrome P450 1A2. For the same molecule, the GI50 in [1] was 120 nM.

Turning to `Cc1cc(Nc2cc(C)c(C#N)c(NCCOc3cccnc3C)n2)n[nH]1`, the half-inhibitory concentration (IC50) was 900 nM at Cytochrome P450 2C19; 2400 nM against Cytochrome P450 2C9; 1800 nM at Cytochrome P450 3A4; more than 50000 nM against Cytochrome P450 2D6; 5500 nM against Cytochrome P450 1A2. The GI50 in series [1] worked out at 4 nM.

On to `CCc1ccc(OCCNc2nc(Nc3cc(C)[nH]n3)cc(C)c2C#N)cn1`, for which the inhibition constant (Ki) at Aurora kinase A was 6 nM. The IC50 on Cytochrome P450 2C19 came to 800 nM; on Cytochrome P450 2C9 it was 1400 nM; at Cytochrome P450 3A4 it was 1600 nM; on Cytochrome P450 2D6 it was 46000 nM; at Cytochrome P450 1A2 it was 1400 nM. Also, the concentration for 50% growth inhibition (GI50) in series [1] amounted to 66 nM.

As to `Cc1cc(Nc2cc(C)c(C#N)c(N[C@@H](C)CCCC(C)(C)O)n2)n[nH]1`, the Ki at Aurora kinase A is less than 1 nM. Besides, the IC50 against Cytochrome P450 2C19 was less than 400 nM; at Cytochrome P450 2C9 it was 1700 nM; at CYP2D6, less than 50000 nM; at Cytochrome P450 1A2, 55000 nM. The 50% growth inhibitory concentration (GI50) in series [1] was 52 nM.

For the molecule `Cc1ccc(OCCNc2nc(Nc3cc(C)[nH]n3)cc(C)c2C#N)c(C)n1`, the half-inhibitory concentration (IC50) on Cytochrome P450 2C19 is 1700 nM; at Cytochrome P450 2C9 it was 3500 nM; against Cytochrome P450 3A4, 1700 nM; against Cytochrome P450 2D6, more than 50000 nM; on Cytochrome P450 1A2, more than 50000 nM. For the same molecule, the GI50 in [1] worked out at 37 nM.

With `Cc1cc(Nc2cc(C)c(C#N)c(NCCOc3cccnc3)n2)n[nH]1`, the values for the IC50 against Cytochrome P450 3A4, against Cytochrome P450 2D6 and against Cytochrome P450 1A2 were less than 400 nM, 9900 nM and 700 nM, respectively. Also, in series [1], the concentration for 50% growth inhibition (GI50) was 2 nM.

Take `CC(=O)O[C@H]1C(=O)[C@@]2(C)[C@H]([C@H](OC(=O)c3ccccc3)[C@]3(O)C[C@H](OC(=O)[C@H](O)[C@@H](NC(=O)c4ccccc4)c4ccccc4)C(C)=C1C3(C)C)[C@]1(OC(C)=O)CO[C@@H]1C[C@@H]2O` [PACLITAXEL]: the Activity entry with Mus musculus is recorded as “Toxic”. Further, the inhibition in vivo at 25 mg/kg in series [2] stood at 24.8%.

In the case of `Cc1cc(Nc2cc(C)c(C#N)c(NCCOc3ccccn3)n2)n[nH]1`, the results for the half-inhibitory concentration (IC50) against Cytochrome P450 3A4, against Cytochrome P450 2D6 and against Cytochrome P450 1A2 were 7200 nM, 29000 nM and less than 400 nM, respectively. In addition, in series [1], the GI50 came to 67 nM.

As a reminder, the Tmax is the time from dosing to the highest level. In general, Cmax refers to the highest concentration seen after dosing. As to `Cc1ccc(OCCNc2nc(Nc3cc(C)[nH]n3)cc(C)c2C#N)cn1`, the inhibitory constant (Ki) amounted to 4 nM at Aurora kinase A; 10 nM on Aurora kinase B; 480 nM in series [3]; 80 nM in series [4]; 80 nM in [5]; 590 nM in [6]. For the same molecule, the inhibition constant Ki in series [7] was 490 nM; in series [8] it was 79 nM. Further, the inhibition in vivo at 30 mg/kg in [9] is 81.9%; in series [13] it was 85%; in [14], 47.8%. In series [10], this molecule returned an AUC of 14.6 µg/mL. Besides, the Tmax in series [11] was found to be 15 min. For the same molecule, the peak concentration (Cmax) in [12] came to 19600 ng/mL. The IC50 at Cytochrome P450 2C19 was 4500 nM; against Cytochrome P450 2C9 it was 4900 nM; against Cytochrome P450 3A4, 4500 nM; on Cytochrome P450 2D6, more than 50000 nM; on Cytochrome P450 1A2, 2000 nM. The GI50 in series [1] amounted to 1 nM. In series [15], the inhibition in vivo at 40 mg/kg is 71%. The inhibition in vivo at 20 mg/kg in series [16] stood at 44%.

For `Cc1cc(Nc2cc(C)c(C#N)c(NCCOc3ccccc3)n2)n[nH]1`, the inhibitory constant (Ki) on Aurora kinase A is 2 nM. Moreover, the IC50 was 1400 nM at Cytochrome P450 3A4, 7200 nM on Cytochrome P450 2D6 and less than 400 nM against Cytochrome P450 1A2. In series [1], the 50% growth inhibitory concentration (GI50) was found to be 11 nM.

In the case of `Cc1cc(Nc2cc(C)c(C#N)c(NCCOc3ccccc3F)n2)n[nH]1`, the inhibition constant (Ki) on Aurora kinase A is less than 1 nM. Moreover, the half-maximal inhibitory concentration (IC50) was 1600 nM on Cytochrome P450 3A4, 7700 nM at Cytochrome P450 2D6 and less than 400 nM on Cytochrome P450 1A2. For the same molecule, in series [1], the GI50 was found to be 26 nM.

The record behind these values is ChEMBL document CHEMBL3871290, “3-Cyano-6-(5-methyl-3-pyrazoloamino) pyridines (Part 2): A dual inhibitor of Aurora kinase and tubulin polymerization” (Bioorg Med Chem Lett, 2016).
